Like-named read-outs stand apart in the source and are kept apart here.
Target: HiBit-WIZ fusion protein (Homo sapiens, UniProt O95785+Q96SW2)
Experiment: Quantification of WIZ protein levels in HiBit tag fusion protein assay (WIZ HiBit assay in 293T cells)
Assay type: cell-based
Set-up: Dmax: dose or concentration left out as unconfirmed
Settings: for remaining activity at up to 25 µM: read-out: WIZ Amax; for DC50: WIZ HiBit assay in 293T cells, 10-point, 5-fold dose response, highest concentration 25 μM, about 18 hours, read-out: WIZ AC50
[1] = HEK-293T, 100 minus Amax, 293T cells, read-out: % degradation of WIZ (100-Amax)
[2] = HEK-293T, DMSO-normalized, curve-fitted percentage of WIZ-HiBit remaining at 25 uM, 293T cells

Chain of HiBit-WIZ fusion protein (O95785 whole entry, the tested form may be a part): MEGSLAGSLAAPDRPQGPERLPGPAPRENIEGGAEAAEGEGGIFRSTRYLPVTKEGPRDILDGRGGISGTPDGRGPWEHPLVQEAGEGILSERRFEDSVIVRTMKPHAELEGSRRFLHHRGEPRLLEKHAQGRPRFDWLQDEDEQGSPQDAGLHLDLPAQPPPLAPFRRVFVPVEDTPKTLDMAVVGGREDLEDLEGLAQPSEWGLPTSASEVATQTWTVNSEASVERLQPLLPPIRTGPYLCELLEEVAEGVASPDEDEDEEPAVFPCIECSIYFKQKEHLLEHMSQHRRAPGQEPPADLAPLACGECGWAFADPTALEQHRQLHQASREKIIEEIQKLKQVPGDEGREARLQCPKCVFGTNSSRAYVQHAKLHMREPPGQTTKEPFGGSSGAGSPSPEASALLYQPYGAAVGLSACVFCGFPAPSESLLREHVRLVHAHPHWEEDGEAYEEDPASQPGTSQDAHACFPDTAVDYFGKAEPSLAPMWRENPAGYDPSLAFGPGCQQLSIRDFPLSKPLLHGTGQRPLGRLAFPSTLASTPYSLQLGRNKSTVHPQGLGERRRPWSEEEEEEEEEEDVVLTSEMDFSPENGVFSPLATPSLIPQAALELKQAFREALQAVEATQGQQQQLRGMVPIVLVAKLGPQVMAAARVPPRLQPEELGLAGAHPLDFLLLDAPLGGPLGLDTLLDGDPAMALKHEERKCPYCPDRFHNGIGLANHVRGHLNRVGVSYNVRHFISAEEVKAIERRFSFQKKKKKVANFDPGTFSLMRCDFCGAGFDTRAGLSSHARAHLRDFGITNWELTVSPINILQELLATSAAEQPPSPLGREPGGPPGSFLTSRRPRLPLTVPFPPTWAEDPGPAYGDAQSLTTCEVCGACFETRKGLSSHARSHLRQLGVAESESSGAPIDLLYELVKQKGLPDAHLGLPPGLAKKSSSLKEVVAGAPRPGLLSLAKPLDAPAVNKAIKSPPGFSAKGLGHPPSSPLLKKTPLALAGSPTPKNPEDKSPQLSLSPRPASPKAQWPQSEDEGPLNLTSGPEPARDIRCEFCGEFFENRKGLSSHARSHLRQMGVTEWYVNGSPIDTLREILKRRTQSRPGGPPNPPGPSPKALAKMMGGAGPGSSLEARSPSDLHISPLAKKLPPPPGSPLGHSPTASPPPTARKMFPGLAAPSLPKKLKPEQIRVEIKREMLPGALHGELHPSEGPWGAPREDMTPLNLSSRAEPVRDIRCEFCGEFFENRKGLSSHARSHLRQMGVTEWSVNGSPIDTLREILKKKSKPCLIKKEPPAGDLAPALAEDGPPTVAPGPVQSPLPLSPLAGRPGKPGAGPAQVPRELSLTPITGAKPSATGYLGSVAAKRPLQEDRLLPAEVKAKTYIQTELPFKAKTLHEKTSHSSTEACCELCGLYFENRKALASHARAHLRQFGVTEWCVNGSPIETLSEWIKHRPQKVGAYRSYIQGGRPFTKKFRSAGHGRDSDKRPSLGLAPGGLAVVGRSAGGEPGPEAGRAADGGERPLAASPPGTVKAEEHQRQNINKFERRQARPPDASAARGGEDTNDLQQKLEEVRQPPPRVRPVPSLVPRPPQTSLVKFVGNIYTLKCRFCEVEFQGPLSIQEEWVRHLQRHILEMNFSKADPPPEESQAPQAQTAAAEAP
Chain of HiBit-WIZ fusion protein (Q96SW2 whole entry, the tested form may be a part): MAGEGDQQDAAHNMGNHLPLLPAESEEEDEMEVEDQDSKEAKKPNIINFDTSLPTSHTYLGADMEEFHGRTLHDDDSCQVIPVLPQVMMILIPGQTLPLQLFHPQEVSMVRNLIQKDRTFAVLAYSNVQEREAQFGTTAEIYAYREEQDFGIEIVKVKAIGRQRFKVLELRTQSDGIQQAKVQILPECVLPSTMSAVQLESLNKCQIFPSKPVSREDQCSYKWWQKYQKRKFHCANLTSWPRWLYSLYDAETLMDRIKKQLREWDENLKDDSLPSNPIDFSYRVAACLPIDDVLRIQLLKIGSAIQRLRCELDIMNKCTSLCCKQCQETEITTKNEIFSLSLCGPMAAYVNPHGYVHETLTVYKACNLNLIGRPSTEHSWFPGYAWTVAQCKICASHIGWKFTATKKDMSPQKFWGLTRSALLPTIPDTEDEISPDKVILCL
Chain of HiBit-WIZ fusion protein (Q16531 whole entry partner, the tested form may be a part): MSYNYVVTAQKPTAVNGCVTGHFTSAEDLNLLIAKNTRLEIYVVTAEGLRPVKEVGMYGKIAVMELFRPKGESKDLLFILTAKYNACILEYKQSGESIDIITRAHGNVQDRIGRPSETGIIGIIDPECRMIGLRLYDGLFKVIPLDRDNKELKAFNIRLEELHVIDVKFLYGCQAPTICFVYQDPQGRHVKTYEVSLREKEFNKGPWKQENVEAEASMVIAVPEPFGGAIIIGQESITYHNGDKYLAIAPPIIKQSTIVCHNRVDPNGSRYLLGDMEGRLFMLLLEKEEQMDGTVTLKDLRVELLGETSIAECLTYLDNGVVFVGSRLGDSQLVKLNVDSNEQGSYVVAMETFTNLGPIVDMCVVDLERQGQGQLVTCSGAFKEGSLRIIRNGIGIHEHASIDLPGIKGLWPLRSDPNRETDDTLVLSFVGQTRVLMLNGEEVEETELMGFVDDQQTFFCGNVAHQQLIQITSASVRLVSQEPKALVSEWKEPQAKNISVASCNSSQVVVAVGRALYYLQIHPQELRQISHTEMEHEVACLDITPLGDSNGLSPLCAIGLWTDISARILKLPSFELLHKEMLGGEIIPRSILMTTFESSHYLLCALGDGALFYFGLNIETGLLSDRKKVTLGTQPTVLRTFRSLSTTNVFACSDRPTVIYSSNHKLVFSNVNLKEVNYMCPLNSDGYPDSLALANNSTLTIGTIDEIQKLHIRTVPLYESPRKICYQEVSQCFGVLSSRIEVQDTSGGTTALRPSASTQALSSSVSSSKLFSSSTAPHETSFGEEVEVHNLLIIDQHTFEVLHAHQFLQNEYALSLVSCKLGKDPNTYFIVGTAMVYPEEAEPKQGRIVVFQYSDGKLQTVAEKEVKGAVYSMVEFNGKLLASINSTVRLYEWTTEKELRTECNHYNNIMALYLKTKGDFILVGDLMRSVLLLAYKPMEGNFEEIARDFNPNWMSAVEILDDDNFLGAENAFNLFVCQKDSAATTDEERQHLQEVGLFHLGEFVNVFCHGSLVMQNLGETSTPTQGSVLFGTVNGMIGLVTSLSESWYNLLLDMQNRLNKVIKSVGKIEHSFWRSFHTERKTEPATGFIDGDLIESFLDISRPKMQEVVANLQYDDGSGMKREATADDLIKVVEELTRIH

Structure (SMILES)	Dmax [1]	remaining activity at up to 25 µM [2]	DC50	% degradation of WIZ (100-Amax) (100 minus Amax, at 25 uM, 293T cells)	WIZ Amax (DMSO-normalized, curve-fitted percentage of WIZ-HiBit remaining at 25 uM, 293T cells)	Dmax (HEK-293T, read-out: % degradation of WIZ (100-Amax), 100 minus Amax, 293T cells)	remaining activity (HEK-293T, read-out: WIZ Amax, DMSO-normalized, curve-fitted percentage of WIZ-HiBit remaining at 25 uM, 293T cells)
O=C1CCC(N2Cc3cc(OC[C@@H]4CCCCN4C(=O)c4cccc(N5CCCCC5)n4)ccc3C2=O)C(=O)N1 (stereo partly drawn) [Compound I-72av]	24.3%	75.7%	> 25 µM				
CCN1CCC(F)(F)CC1COc1ccc2c(c1)CN(C1CCC(=O)NC1=O)C2=O (single isomer, unassigned) [I-252 (Isomer 1), 3-(5-((1-ethyl-4,4-difluoropiperidin-2-yl)methoxy)-1-oxoisoindolin-2-yl)piperidine-2,6-dione]			0.05 µM	58.1%	41.9%		
O=C1CCC(N2Cc3cc(OC[C@@H]4CCCCN4Cc4cc(-n5nnnc5C(F)(F)F)ccc4O)ccc3C2=O)C(=O)N1 (stereo partly drawn) [Compound I-50x]	22%	78%	> 25 µM				
CC(C)(C)OC(=O)N1CCc2cccc(CN3CCCC[C@@H]3COc3ccc4c(c3)CN(C3CCC(=O)NC3=O)C4=O)c21 (stereo partly drawn) [Compound I-110, Tert-butyl 7-(((2R)-2-(((2-(2,6-dioxopiperidin-3-yl)-1-oxoisoindolin-5-yl)oxy)methyl)piperidin-1-yl)methyl)indoline-1-carboxylate]	99.5%	0.48%	0.0086 µM				
CCc1cncc(C(=O)N2CCCC[C@H]2COc2ccc3c(c2)CN(C2CCC(=O)NC2=O)C3=O)c1 (stereo partly drawn) [Compound I-72ay]	17.6%	82.4%	> 25 µM				
CCOC(=O)c1n[nH]cc1CN1CCCC[C@@H]1COc1ccc2c(c1)CN(C1CCC(=O)NC1=O)C2=O (stereo partly drawn) [Compound I-50ch]	59.1%	40.9%	9.24 µM				
CN(C)c1ncc(CN2CCCC[C@H]2COc2ccc3c(c2)CN(C2CCC(=O)NC2=O)C3=O)cn1 (stereo partly drawn) [Compound I-50m]	46.6%	53.4%	> 25 µM				
O=C1CCC(N2Cc3cc(OC[C@@H]4CCCCN4Cc4ccc(N5CCCC5)nc4)ccc3C2=O)C(=O)N1 (stereo partly drawn) [Compound I-50ak]	81.3%	18.7%	0.347 µM				
O=C1CCC(N2Cc3cc(OC[C@H]4CCCCN4Cc4ccccc4N4CCOCC4)ccc3C2=O)C(=O)N1 (stereo partly drawn) [Compound I-101]	96%	3.95%	0.072 µM				
Cc1nnc(-c2ccc(CN3CCCC[C@@H]3COc3ccc4c(c3)CN(C3CCC(=O)NC3=O)C4=O)cc2)o1 (stereo partly drawn) [Compound I-50dv]	65%	35%	2.99 µM				
CC(C)N1CCN(c2ccc(CN3CCCC[C@@H]3COc3ccc4c(c3)CN(C3CCC(=O)NC3=O)C4=O)cc2)CC1 (stereo partly drawn) [Compound I-227, 3-(5-(((R)-1-(4-(4-isopropylpiperazin-1-yl)benzyl)piperidin-2-yl)methoxy)-1-oxoisoindolin-2-yl)piperidine-2,6-dione]			0.058 µM			64.2%	35.8%
COC(=O)c1ccc(Oc2ccc(CN3CCCC[C@@H]3COc3ccc4c(c3)CN(C3CCC(=O)NC3=O)C4=O)cc2)cc1 (stereo partly drawn) [Compound I-50bh]	99.9%	0.1%	0.005 µM				
O=C1CCC(N2Cc3cc(OC[C@@H]4CCCCN4Cc4cc(Cl)ccc4O)ccc3C2=O)C(=O)N1 (stereo partly drawn) [Compound I-50bj]	25.8%	74.2%	> 25 µM				
O=C1CCC(N2Cc3cc(OC[C@H]4CCCCN4Cc4ccc(C5=CCOCC5)cc4)ccc3C2=O)C(=O)N1 (stereo partly drawn) [Compound I-188, 3-(5-(((R)-1-(4-(3,6-dihydro-2H-pyran-4-yl)benzyl)piperidin-2-yl)methoxy)-1-oxoisoindolin-2-yl)piperidine-2,6-dione]	86.6%	13.4%	0.00035 µM				
N#Cc1ccccc1CN1CCCC[C@@H]1COc1ccc2c(c1)CN(C1CCC(=O)NC1=O)C2=O (stereo partly drawn) [Compound I-50dz]	62.8%	37.2%	3.27 µM				
COC(=O)c1nn(-c2cccc(C(F)(F)F)c2)cc1CN1CCCC[C@H]1COc1ccc2c(c1)CN(C1CCC(=O)NC1=O)C2=O (stereo partly drawn) [Compound I-50ay]	25.7%	74.3%	> 25 µM				

Now from value to compound, other results behind:

Dmax [1]	remaining activity at up to 25 µM [2]	DC50	Structure (SMILES)	% degradation of WIZ (100-Amax) (100 minus Amax, at 25 uM, 293T cells)	WIZ Amax (DMSO-normalized, curve-fitted percentage of WIZ-HiBit remaining at 25 uM, 293T cells)	Dmax (HEK-293T, read-out: % degradation of WIZ (100-Amax), 100 minus Amax, 293T cells)	remaining activity (HEK-293T, read-out: WIZ Amax, DMSO-normalized, curve-fitted percentage of WIZ-HiBit remaining at 25 uM, 293T cells)
98%	2%	0.031 µM	O=C1CCC(N2Cc3cc(OC[C@H]4CCCCN4CC4CCN(Cc5ccccc5)CC4)ccc3C2=O)C(=O)N1 (stereo partly drawn) [Compound I-50bg]				
2.9%	97.1%	> 25 µM	N#CC1(c2cc(C(=O)N3CCCC[C@H]3COc3ccc4c(c3)CN(C3CCC(=O)NC3=O)C4=O)ccn2)CC1 (stereo partly drawn) [Compound I-72y]				
60.4%	39.6%	8.52 µM	CCCCc1cnc(C(=O)N2CCCC[C@H]2COc2ccc3c(c2)CN(C2CCC(=O)NC2=O)C3=O)nc1OC (stereo partly drawn) [Compound I-72aw]				
0.9%	99.1%	> 25 µM	COc1cc(OC)nc(C(=O)N2CCCC[C@H]2COc2ccc3c(c2)CN(C2CCC(=O)NC2=O)C3=O)n1 (stereo partly drawn) [Compound I-72is]				
16.1%	83.9%	> 25 µM	O=C1CCC(N2Cc3cc(OC[C@@H]4CCCCN4Cc4ncccc4O)ccc3C2=O)C(=O)N1 (stereo partly drawn) [Compound I-50dg]				
22.9%	77.1%	> 25 µM	CCc1ocnc1C(=O)N1CCCC[C@H]1COc1ccc2c(c1)CN(C1CCC(=O)NC1=O)C2=O (stereo partly drawn) [Compound I-72ah]				
97.5%	2.52%	0.048 µM	O=C1CCC(N2Cc3cc(OC[C@H]4CCCCN4Cc4ccc5ccccc5n4)ccc3C2=O)C(=O)N1 (stereo partly drawn) [Compound I-152]				
87.1%	12.9%	0.54 µM	O=C1CCC(N2Cc3cc(OC[C@H]4CCCCN4CC4CC5(COC5)C4)ccc3C2=O)C(=O)N1 (stereo partly drawn) [Compound I-104, 3-(5-(((R)-1-((2-oxaspiro[3.3]heptan-6-yl)methyl)piperidin-2-yl)methoxy)-1-oxoisoindolin-2-yl)piperidine-2,6-dione]				
21.5%	78.5%	> 25 µM	CCN1CCOC[C@H]1COc1ccc2c(c1)CN(C1CCC(=O)NC1=O)C2=O (stereo partly drawn) [Compound I-64, 3-(5-(((S)-4-ethylmorpholin-3-yl)methoxy)-1-oxoisoindolin-2-yl)piperidine-2,6-dione]				
7.2%	92.8%	> 25 µM	CN(C)CC(=O)N1CCCC[C@H]1COc1ccc2c(c1)CN(C1CCC(=O)NC1=O)C2=O (stereo partly drawn) [Compound I-72jk]				
96.8%	3.2%	0.089 µM	Cc1noc(C)c1CN1CCCC[C@H]1COc1ccc2c(c1)CN(C1CCC(=O)NC1=O)C2=O (stereo partly drawn) [Compound I-50ao]				
53.1%	46.9%	> 25 µM	COc1cc2[nH]nc(CN3CCCC[C@H]3COc3ccc4c(c3)CN(C3CCC(=O)NC3=O)C4=O)c2cc1OCc1ccccc1 (stereo partly drawn) [Compound I-50ae]				
81.8%	18.2%	0.034 µM	O=C1CCC(N2Cc3cc(OC[C@H]4CCCCN4Cc4cccc5c4OCCO5)ccc3C2=O)C(=O)N1 (stereo partly drawn) [Compound I-135, 3-(5-(((R)-1-((2,3-dihydrobenzo[b][1,4]dioxin-5-yl)methyl)piperidin-2-yl)methoxy)-1-oxoisoindolin-2-yl)piperidine-2,6-dione]				
5.1%	94.9%	> 25 µM	Cc1ccnc(-c2cc(C(=O)N3CCCC[C@H]3COc3ccc4c(c3)CN(C3CCC(=O)NC3=O)C4=O)ccn2)c1 (stereo partly drawn) [Compound I-72fa]				
23.3%	76.7%	> 25 µM	C[C@H]1CC[C@H](CC(=O)N2CCCC[C@H]2COc2ccc3c(c2)CN(C2CCC(=O)NC2=O)C3=O)CC1 (stereo partly drawn) [Compound I-72do]				
2.2%	97.8%	> 25 µM	Cc1n[nH]c(CC(=O)N2CCCC[C@H]2COc2ccc3c(c2)CN(C2CCC(=O)NC2=O)C3=O)n1 (stereo partly drawn) [Compound I-72cg]				
71.2%	28.8%	0.77 µM	O=C1CCC(N2Cc3cc(OC[C@H]4CCCCN4Cc4ccccc4OCC(=O)N4CCCCC4)ccc3C2=O)C(=O)N1 (stereo partly drawn) [Compound I-50dq]				
16.8%	83.2%	> 25 µM	COc1ccccc1C(=O)N1CCC[C@@H]1COc1ccc2c(c1)CN(C1CCC(=O)NC1=O)C2=O (stereo partly drawn) [Compound I-83, 3-(5-(((R)-1-(2-methoxybenzoyl)pyrrolidin-2-yl)methoxy)-1-oxoisoindolin-2-yl)piperidine-2,6-dione]				
7.7%	92.3%	> 25 µM	O=C1CCC(N2Cc3cc(OC[C@@H]4CCCCN4C(=O)Cc4cc[nH]n4)ccc3C2=O)C(=O)N1 (stereo partly drawn) [Compound I-72af]				
4.6%	95.4%	> 25 µM	O=C1CCC(N2Cc3cc(OC[C@@H]4CCCCN4C(=O)[C@@H]4CCC(=O)N4Cc4ccccc4)ccc3C2=O)C(=O)N1 (stereo partly drawn) [Compound I-72ed]				
71.7%	28.3%	5.97 µM	O=C1CCC(N2Cc3cc(OC[C@@H]4CCCCN4Cc4cn[nH]c4)ccc3C2=O)C(=O)N1 (stereo partly drawn) [Compound I-50cc]				
14.4%	85.6%	> 25 µM	Cc1onc(-c2ccccc2)c1CC(=O)N1CCCC[C@H]1COc1ccc2c(c1)CN(C1CCC(=O)NC1=O)C2=O (stereo partly drawn) [Compound I-72gp]				

Reference: patent US11566022B2, “3-(5-methoxy-1-oxoisoindolin-2-yl)piperidine-2,6-dione derivatives and uses thereof” (NOVARTIS AG, priority 2019, dated 2023)
